Tests used:
[1] = tested on: BALB/c splenic CD4+ T cells; assay: Survival and apoptosis of anti-CD3/anti-CD28 activated CD4+ T cells; type: cell-based, BALB/c mice
Description: The role of IAP family members in mature NKT cell survival was assessed. […] After 24 hours viable cells were quantified by trypan blue exclusion, and the resulting cell counts are depicted in FIG. 2A. Apoptotic cells were quantified in the cultures from FIG. 2A using flow cytometry with annexin V and 7-AAD (results are depicted in FIG. 2B).

BALB/c spleen cells = assay: Cytokine secretion of α-galcer stimulated spleen cells (ELISA); type: cell-based, BALB/c mice; conditions: 500 nM, 48 hours, versus control compound
Description: In order to determine the functional consequences of IAP inhibition in NKT cells, spleen cells from BALB/c mice were stimulated with the NKT cell specific agonist α-galactosylceramide (α-galcer). […]. After 48 hours, cytokine levels were measured in the culture supernatants by ELISA, and the results are depicted in FIG. 3A (IFNγ) and FIG. 3B (IL-2). […].

splenic CD4+ T cells = assay: IL-2 production of anti-CD3/anti-CD28 stimulated CD4+ T cells (ELISA); type: cell-based, BALB/c mice
CD8+ T cells = assay: Cytokine production of stimulated CD8+ T cells (ELISA); type: cell-based, C57BL/6 mice; conditions: anti-CD3 and anti-CD28; 48 hours
Description: Because the observed effect of IAP inhibition in T cells could still depend on alterations in NKT cell function, the consequences of IAP inhibition were assessed in NKT cell deficient CD1d knockout C57BL/6 mice. […] The effect of IAP inhibition was not limited to CD4+ T cells, as CD8+ T cells similarly produced excess IFN-γ and IL-2 after stimulation in the presence of IAP inhibitors (FIG. 5).

JNK and NF-κB pathways = assay: Western blot of JNK phosphorylation and IκB degradation in stimulated CD4+ T cells; type: cell-based
Description: In order to investigate the mechanism linking IAP inhibition to enhanced, activation-dependent cytokine production, the effect of IAP inhibition on JNK phosphorylation and IκB degradation in stimulated CD4+ T cells was assessed by Western blot. […] Replicates were combined and cell lysates were analyzed by Western blot for the indicated proteins. PDI was used as a loading control.

[2] = tested on: BALB/c spleen cells cultured with irradiated C57BL/6 spleen cells; assay: Allo-reactivity: six day mixed lymphocyte reaction and restimulation; type: cell-based, BALB/c mice; conditions: 500 nM, six days
Description: After six days, cultures were harvested and cytokine production and spleen cell proliferation was analyzed. […] Cytokines were measured in cell supernatants by ELISA. […] At the conclusion of the cultures described in FIG. 9A, total viable cells were counted by trypan blue exclusion and immune cell subsets were identified by flow cytometry using the markers indicated in FIG. 9B. […] Substantial B cell proliferation occurred in IAP inhibited cultures (FIG. 9B). The activation enhancing effects of IAP inhibition were readily reversed; in allo-reactive T cells, secondary stimulations with anti-CD3 in the absence of inhibitors led to equivalent responses regardless of the previous culture conditions (FIG. 10). Cells stimulated in a six day mixed lymphocyte reaction were recovered and restimulated with anti-CD3 for 48 hours. Cytokines were measured in culture supernatants by ELISA. Sample labels indicated in FIG. 10 refer to the treatment used during the primary stimulation.

[3] = tested on: CD4+ T cells from MLIAP transgenic mice; assay: IL-2 production of ML-IAP transgenic CD4+ T cells (ELISA); type: cell-based, BALB/c mice; conditions: anti-CD3 and anti-CD28; 48 hours
Excerpt: Whether overexpression of ML-IAP, an endogenous SMAC binding protein, could alter the response of T cells to activating stimuli was also examined.

B16 mouse melanoma cells = assay: B16 vaccination and live tumor challenge in vivo; set-up: species or system mice; conditions: single oral dose 150 mg/kg in combination with irradiated B16 vaccine; compared with LBW-242 or vaccine alone; days 7-16
Description: . Irradiated B16 mouse melanoma cells (vaccine) were administered to mice on days −14 and −7 with or without a single oral dose of LBW-242 (150 mg/kg). Live B16 tumor cells were implanted into the mice on day 0 (challenge). Tumor volume was measured at 7, 10, 13 and 16 days following the live cell implant. […].

[4] = tested on: CD4+ T cells from XIAP KO mice; assay: IL-2 production of XIAP knockout CD4+ T cells (ELISA); conditions: anti-CD3 and anti-CD28; 48 hours; versus LCV-843
[5] = tested on: bone marrow derived dendritic cells; assay: IL-12 p40 production of bone marrow derived dendritic cells (ELISA); conditions: 500 nM; cluster disruption; 24 hours
B cells = conditions: 500 nM; anti-IgM and anti-CD40; 96 hours; compared to control cells
Description: Because the JNK and NF-κB pathways play important roles in signaling down stream of a wide range of immune receptors, we analyzed the effect of IAP inhibitors in several additional immune populations. […] IL-6 was measured in the culture supernatant by ELISA.

[6] = 500 nM, anti-CD3 and anti-CD28, 24 hours
[7] = versus control compound LCV-843

With `CN[C@H](C)C(=O)N[C@@H](C(=O)N1CCC2CCN(CCc3ccccc3)CC21)C1CCCCC1` (stereo in doubt) [LBW-242, N-[1-cyclohexyl-2-oxo-2-(6-phenethyl-octahydro-pyrrolo[2,3-c]pyridin-1-yl)-ethyl]-2-methylamino-propionamide] the “NKT cells in culture (anti-CD3 and α-galcer loaded CD1d tetramers)” value ([1]; 500 nM, 24 hours) was “still detectable in culture at normal frequencies”, the “apoptosis (annexin V and 7-AAD)” value [1, 6] was “nor did it contribute to apoptosis” and the “total number of T cells (viable cells, trypan blue exclusion)” value [1, 6] was “did not alter”. For the same compound, the “apoptosis in the absence of stimulation” value ([1]; no stimulation) was “no discernible effect”, the IFN-γ secretion (BALB/c spleen cells) was “increased secretion” and the IL-2 secretion (BALB/c spleen cells) was “increased secretion”. The “effects from IAP inhibition in the absence of stimulation” value (splenic CD4+ T cells; isotype control, no stimulation) was “No effects”, the IL-2 production (splenic CD4+ T cells; unfractionated BALB/c or C57BL/6 CD4+ T cells, anti-CD3 and anti-CD28, 48 hours) was “similar, dose-dependent effect” and the IFN-γ production (CD8+ T cells) was “excess”. For the same compound, the IL-2 production (CD8+ T cells) was “excess”, the “bcl-10 levels in activated T cells” value (JNK and NF-κB pathways; 500 nM) was “did not lead to a detectable change” and the “activation of JNK and NF-κB pathways (JNK phosphorylation, IκB degradation)” value (JNK and NF-κB pathways; 500 nM, anti-CD3 and anti-CD28, versus control compound LCV-843) was “activated more rapidly”. The “JNK phosphorylation and IκB degradation in the absence of stimulation” value (JNK and NF-κB pathways; no stimulation) was “No changes”, the B cell proliferation [2] was “Substantial” and the “CD4 T cell proliferation” value [2] was “significant”. The IFN-γ secretion [2, 7] was “significantly enhanced”, the IL-2 levels [2, 7] was “significantly reduced” and the “reduced IL-2 secretion of ML-IAP transgenic T cells” value [3] was “could be modulated”. For the same compound, the “tumor burden following challenge with live B16 cells” value (B16 mouse melanoma cells) was “reduced”, the “cytokine (IL-2) secretion of XIAP deficient T cells” value [4] was “only a small increase” and the “IL-12 p40 production, partially activated DCs” value [5] was “increased”. For the same compound, the IL-6 production (B cells) was “increased”.

Source: patent US10786491B2, “Immunomodulation by IAP inhibitors” (Novartis AG, priority 2008, dated 2020)
